US10640534B2 (Agios Pharmaceuticals, Inc., priority 2012, dated 2020)

tested on: U87MG cells; experiment: Cellular assay, inhibition of 2-HG production in U87MG cells; type: cell-based; settings: Homo sapiens, U-87 MG, 48 h
Procedure: Cells (HT1080 or U87MG) are grown in T125 flasks in DMEM containing 10% FBS, 1× penicillin/streptomycin and 500 ug/mL G418 (present in U87MG cells only). They are harvested by trypsin and seeded into 96 well white bottom plates at a density of 5000 cell/well in 100 ul/well in DMEM with 10% FBS. […] Cells are incubated overnight at 37° C. in 5% CO2. The next day test compounds are made up at 2× the final concentration and 100 ul are added to each cell well. The final concentration of DMSO is 0.2% and the DMSO control wells are plated in row G. The plates are then placed in the incubator for 48 hours. […] The cell plate is placed back in the incubator for another 24 hours. At 72 hours post compound addition, 10 mL/plate of Promega Cell Titer Glo reagent is thawed and mixed. The cell plate is removed from the incubator and allowed to equilibrate to room temperature. Then 100 ul of Promega Cell Titer Glo reagent is added to each well of media. The cell plate is then placed on an orbital shaker for 10 minutes and then allowed to sit at room temperature for 20 minutes. The plate is then read for luminescence with an integration time of 500 ms.

| Structure (SMILES) | IC50 [nM] |
| --- | --- |
| N#Cc1ccnc(N2C(=O)CC[C@H]2C(=O)N(c2cccc(OCCO)c2)[C@H](C(=O)NC2CC(F)(F)C2)c2ccccc2Cl)c1 (single isomer, unassigned) [Compound 130] | < 100 |
| N#Cc1ccnc(N2C(=O)CC[C@H]2C(=O)N(c2cccc(OC(F)F)c2)[C@H](C(=O)NC2CC(F)(F)C2)c2ccccc2Cl)c1 (single isomer, unassigned) [Compound 181] | < 100 |
| O=C(NC1CCCCC1)[C@H](c1ccccc1Cl)N(C(=O)[C@@H]1CCC(=O)N1c1ncccn1)c1cccc(F)c1 [Compound 7] | < 100 |
| O=C(NC1CC(F)(F)C1)[C@H](c1ccccc1Cl)N(C(=O)[C@@H]1COC(=O)N1c1ncccn1)c1cccc(F)c1 [Compound 9, (S)—N—((S)-1-(2-chloro-phenyl)-2-(3,3-difluorocyclo-butylamino)-2-oxoethyl)-N-(3-fluorophenyl)-2-oxo-3-(pyrimidin-2-yl)oxazolidine-4-carboxamide] | < 100 |
| O=C(NC1CC(F)(F)C1)[C@H](c1ccccc1Cl)N(C(=O)[C@@H]1CCC(=O)N1c1nccs1)c1cccc(F)c1 [Compound 14] | 100 to 500 |
| Cc1ccc(N2C(=O)CC[C@H]2C(=O)N(c2cccc(F)c2)[C@H](C(=O)NC2CC(F)(F)C2)c2ccccc2Cl)nc1 [Compound 21] | 100 to 500 |
| O=C(NC1CC(F)(F)C1)[C@H](c1ccccc1Cl)N(C(=O)[C@@H]1CCC(=O)N1c1ccc(F)cn1)c1cccc(F)c1 [Compound 29] | < 100 |

More lines, now with the values ahead:

| IC50 [nM] | Structure (SMILES) |
| --- | --- |
| < 100 | C[C@]1(O)C[C@@H](C(=O)N(c2cccc(F)c2)C(C(=O)NC2CC(F)(F)C2)c2ccccc2Cl)N(c2cc(C#N)ccn2)C1=O (single isomer, unassigned) [Compound 183] |
| 100 to 500 | O=C(NC1CC(F)(F)C1)C(c1ccccc1Cl)N(C(=O)[C@@H]1CCCC(=O)N1c1ncccn1)c1cccc(F)c1 (stereo in doubt) [Compound 20, (S)—N—((R)-1-(2-Chloro-phenyl)-2-((3,3-difluorocyclobutyl)amino)-2-oxoethyl)-N-(3-fluoro-phenyl)-6-oxo-1-(pyrimidin-2-yl)piperidine-2-carboxamide] |
| 100 to 500 | O=C(NC1CC(F)(F)C1)[C@H](c1ccccc1Cl)N(C(=O)[C@@H]1CCC(=O)N1c1ncccn1)c1cccc(F)c1 [Compound 1] |
| < 100 | O=C(NC1CCC(F)(F)CC1)[C@H](c1ccccc1Cl)N(C(=O)[C@@H]1CCC(=O)N1c1ncccn1)c1cccc(F)c1 [Compound 4, (S)—N—((S)-1-(2-chlorophenyl)-2-((4,4-difluorocyclohexyl)amino)-2-oxoethyl)-N-(3-fluorophenyl)-5-oxo-1-(pyrimidin-2-yl)pyrrolidine-2-carboxamide] |
| 100 to 500 | O=C(NC1CC(F)(F)C1)C(c1ccccc1Cl)N(C(=O)[C@@H]1CCC(=O)N1c1ccccn1)c1cccc(F)c1 (some centres unmarked) [Compound 5] |
| < 100 | O=C(NC1CC(F)(F)C1)C(c1ccccc1Cl)N(C(=O)C1CCC(=O)N1c1cnccn1)c1cccc(F)c1 (centres unmarked) [Compound 18] |
| 100 to 500 | O=C(NC1CC(F)(F)C1)C(c1ccccc1Cl)N(C(=O)[C@@H]1CCC(=O)N1c1ccccc1)c1cccc(F)c1 (some centres unmarked) [Compound 23] |
| 100 to 500 | O=C(NC1CC(F)(F)C1)[C@H](c1ccccc1Cl)N(C(=O)[C@@H]1COCC(=O)N1c1ncccn1)c1cccc(F)c1 [Compound 30, (S)—N—((S)-1-(2-chlorophenyl)-2-((3,3-difluorocyclobutyl)amino)-2-oxoethyl)-N-(3-fluorophenyl)-5-oxo-4-(pyrimidin-2-yl)morpholine-3-carboxamide] |
| 100 to 500 | O=C(NC1CC(F)(F)C1)[C@H](c1ccccc1Cl)N(C(=O)[C@@H]1CCC(=O)N1c1cc(Cl)ccn1)c1cccc(F)c1 [Compound 33] |
| < 100 | N#Cc1ccnc(N2C(=O)CC[C@H]2C(=O)N(c2cccc(F)c2)[C@H](C(=O)NC2CC(F)(F)C2)c2ccccc2Cl)c1 [Compound 37] |
